Molecules are shown by their SMILES.

This assay has as its target T1, recombinant full-length human prolyl endopeptidase (PREP) (Homo sapiens, UniProt P48147).
T1 construct: To recombinant full-length human prolyl endopeptidase (PREP, R&D-Systems, 4308-SE); purchased R&D-Systems 4308-SE
T1 sequence (P48147 1-710): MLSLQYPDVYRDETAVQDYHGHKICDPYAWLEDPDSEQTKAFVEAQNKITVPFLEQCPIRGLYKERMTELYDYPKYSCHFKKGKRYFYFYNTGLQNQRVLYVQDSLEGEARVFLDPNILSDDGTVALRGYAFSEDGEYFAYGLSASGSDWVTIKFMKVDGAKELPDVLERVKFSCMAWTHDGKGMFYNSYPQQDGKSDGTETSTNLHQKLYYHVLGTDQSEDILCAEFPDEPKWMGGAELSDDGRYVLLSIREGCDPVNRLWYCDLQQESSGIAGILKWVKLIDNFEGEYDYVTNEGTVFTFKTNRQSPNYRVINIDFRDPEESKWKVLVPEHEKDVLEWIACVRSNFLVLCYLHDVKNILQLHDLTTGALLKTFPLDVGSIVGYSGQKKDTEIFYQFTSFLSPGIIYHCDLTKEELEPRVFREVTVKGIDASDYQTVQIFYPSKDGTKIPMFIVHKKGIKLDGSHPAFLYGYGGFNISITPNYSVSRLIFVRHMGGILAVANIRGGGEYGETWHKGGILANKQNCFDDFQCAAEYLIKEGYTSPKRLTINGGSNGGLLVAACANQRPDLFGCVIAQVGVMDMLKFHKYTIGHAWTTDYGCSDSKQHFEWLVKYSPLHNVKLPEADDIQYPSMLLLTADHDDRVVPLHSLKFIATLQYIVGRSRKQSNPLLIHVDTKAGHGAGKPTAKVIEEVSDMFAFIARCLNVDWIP
The assay can be described thus: Biochemical human prolyl endopeptidase (PREP) assay with fluorescently labelled substrate. The note with it: substrate Z-Gly-Pro-AMC 50 μM, 32° C., 60 min; some as mean values from multiple independent determinations. In short, it runs like this: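 0.4 nM (final, example) recombinant PREP in pH 7.5 Tris buffer with EDTA, GSH, BSA and Brij-35; compounds at 1 nM to 30 μM. Reaction started with 50 μM Z-Gly-Pro-AMC and followed by fluorescence (ex 360/em 465 nm) at 32° C for 60 min. IC50 interpolated from percent activity based on initial slopes.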
`O=C([C@@H]1CCCc2nn(Cc3nc(C(F)(F)F)no3)c(=O)n21)N1C[C@@H](F)[C@@H](F)C1` [Example 500, (5S)-5-{[(3R,4S)-3,4-Difluoropyrrolidin-1-yl]carbonyl}-2-{[3-(trifluoromethyl)-1,2,4-oxadiazol-5-yl]methyl}-5,6,7,8-tetrahydro[1,2,4]triazolo[4,3-a]pyridin-3(2H)-one]: the concentration for half-maximal inhibition (IC50) amounted to 5.15 nM.
The same measure for `O=C([C@@H]1CCCc2nn(Cc3nc(C(F)(F)F)no3)c(=O)n21)N1CCC(F)(F)C1` [Example 501, (5S)-5-[(3,3-Difluoropyrrolidin-1-yl)carbonyl]-2-{[3-(trifluoromethyl)-1,2,4-oxadiazol-5-yl]methyl}-5,6,7,8-tetrahydro[1,2,4]triazolo[4,3-a]pyridin-3(2H)-one]: 25.5 nM.
On to `O=C([C@@H]1CCCc2nn(Cc3ccc(C(F)(F)F)nc3)c(=O)n21)N1CCSC1` [Example 503, (5S)-5-(1,3-Thiazolidin-3-ylcarbonyl)-2-{[6-(trifluoromethyl)pyridin-3-yl]methyl}-5,6,7,8-tetrahydro[1,2,4]triazolo[4,3-a]pyridin-3(2H)-one], for which the 50% inhibitory concentration (IC50) stood at 2 nM.
Regarding `O=C([C@@H]1CCCc2nn(Cc3ccc(Br)cn3)c(=O)n21)N1C[C@@H](F)[C@@H](F)C1` [Example 504, (5S)-2-[(5-Bromopyridin-2-yl)methyl]-5-{[(3R,4S)-3,4-difluoropyrrolidin-1-yl]carbonyl}-5,6,7,8-tetrahydro[1,2,4]triazolo[4,3-a]pyridin-3(2H)-one], the IC50 was determined as 1.8 nM.
With `O=C([C@@H]1CCCc2nn(Cc3ccc(Cl)cn3)c(=O)n21)N1CCSC1` [Example 505, (5S)-2-[(5-Chloropyridin-2-yl)methyl]-5-(1,3-thiazolidin-3-ylcarbonyl)-5,6,7,8-tetrahydro[1,2,4]triazolo[4,3-a]pyridin-3(2H)-one], the IC50 was determined as 1.4 nM.
With `O=C([C@@H]1CCCc2nn(Cc3cncc(Br)c3)c(=O)n21)N1C[C@@H](F)[C@@H](F)C1` [Example 506, (5S)-2-[(5-Bromopyridin-3-yl)methyl]-5-{[(3R,4S)-3,4-difluoropyrrolidin-1-yl]carbonyl}-5,6,7,8-tetrahydro[1,2,4]triazolo[4,3-a]pyridin-3(2H)-one], the half-inhibitory concentration (IC50) was 1.2 nM.
Turning to `O=C([C@@H]1CCCc2nn(Cc3ncc(Cl)cc3F)c(=O)n21)N1CCSC1` [Example 507, (5S)-2-[(5-Chloro-3-fluoropyridin-2-yl)methyl]-5-(1,3-thiazolidin-3-ylcarbonyl)-5,6,7,8-tetrahydro[1,2,4]triazolo[4,3-a]pyridin-3(2H)-one], the IC50 stood at 0.94 nM.
The same measure for `O=C([C@@H]1CCCc2nn(Cc3ccc(Cl)cn3)c(=O)n21)N1CC[C@H](F)C1` [Example 508, (5S)-2-[(5-Chloropyridin-2-yl)methyl]-5-{[(3S)-3-fluoropyrrolidin-1-yl]carbonyl}-5,6,7,8-tetrahydro[1,2,4]triazolo[4,3-a]pyridin-3(2H)-one]: 0.91 nM; for `O=C([C@@H]1CCCc2nn(Cc3cncc(Br)c3)c(=O)n21)N1CC[C@H](F)C1` [Example 509, (5S)-2-[(5-Bromopyridin-3-yl)methyl]-5-{[(3S)-3-fluoropyrrolidin-1-yl]carbonyl}-5,6,7,8-tetrahydro[1,2,4]triazolo[4,3-a]pyridin-3(2H)-one]: 0.7 nM.
On to `O=C([C@@H]1CCCc2nn(Cc3ccc(Br)cn3)c(=O)n21)N1CC[C@H](F)C1` [Example 510, (5S)-2-[(5-Bromopyridin-2-yl)methyl]-5-{[(3S)-3-fluoropyrrolidin-1-yl]carbonyl}-5,6,7,8-tetrahydro[1,2,4]triazolo[4,3-a]pyridin-3(2H)-one], for which the IC50 came to 0.535 nM.
For the compound `N#C[C@@H]1CCCN1C(=O)[C@@H]1CCCc2nn(Cc3ccc(C(F)(F)F)nc3)c(=O)n21` [Example 511, (2S)-1-{[(5S)-3-Oxo-2-{[6-(trifluoromethyl)pyridin-3-yl]methyl}-2,3,5,6,7,8-hexahydro[1,2,4]triazolo[4,3-a]pyridin-5-yl]carbonyl}pyrrolidine-2-carbonitrile], the 50% inhibitory concentration (IC50) is 0.365 nM.
With `N#C[C@@H]1CCCN1C(=O)[C@@H]1CCCc2nn(Cc3ccc(Cl)cn3)c(=O)n21` [Example 512, (2S)-1-({(5S)-2-[(5-Chloropyridin-2-yl)methyl]-3-oxo-2,3,5,6,7,8-hexahydro[1,2,4]triazolo[4,3-a]pyridin-5-yl}carbonyl)pyrrolidine-2-carbonitrile], the concentration for half-maximal inhibition (IC50) was 0.15 nM.
As for `N#C[C@@H]1CCCN1C(=O)[C@@H]1CCCc2nn(Cc3ncc(Cl)cc3Cl)c(=O)n21` [Example 513, (2S)-1-({(5S)-2-[(3,5-Dichloropyridin-2-yl)methyl]-3-oxo-2,3,5,6,7,8-hexahydro[1,2,4]triazolo[4,3-a]pyridin-5-yl}carbonyl)pyrrolidine-2-carbonitrile], the IC50 was determined as 0.13 nM.
`N#C[C@@H]1CCCN1C(=O)[C@@H]1CCCc2nn(Cc3ncc(Cl)cc3F)c(=O)n21` [Example 514, (2S)-1-({(5S)-2-[(5-Chloro-3-fluoropyridin-2-yl)methyl]-3-oxo-2,3,5,6,7,8-hexahydro[1,2,4]triazolo[4,3-a]pyridin-5-yl}carbonyl)pyrrolidine-2-carbonitrile]: the IC50 was found to be 0.061 nM.
Turning to `O=C([C@@H]1CCCc2nn(Cc3cncc(C(F)(F)F)c3)c(=O)n21)N1CC[C@H](F)C1` [Example 515, (5S)-5-{[(3S)-3-Fluoropyrrolidin-1-yl]carbonyl}-2-{[5-(trifluoromethyl)pyridin-3-yl]methyl}-5,6,7,8-tetrahydro[1,2,4]triazolo[4,3-a]pyridin-3(2H)-one], the IC50 worked out at 0.59 nM.
With `Cc1ccc(C(=O)Cn2nc3n(c2=O)[C@H](C(=O)N2CC[C@H](F)C2)CCC3)cc1` [Example 516, (5S)-5-{[(3S)-3-Fluoropyrrolidin-1-yl]carbonyl}-2-[2-(4-methylphenyl)-2-oxoethyl]-5,6,7,8-tetrahydro[1,2,4]triazolo[4,3-a]pyridin-3(2H)-one], the IC50 amounted to 4.2 nM.
Consider `Cc1ccc(C(F)(F)Cn2nc3n(c2=O)[C@H](C(=O)N2CC[C@H](F)C2)CCC3)cc1` [Example 517, (5S)-2-[2,2-Difluoro-2-(4-methylphenyl)ethyl]-5-{[(3S)-3-fluoropyrrolidin-1-yl]carbonyl}-5,6,7,8-tetrahydro[1,2,4]triazolo[4,3-a]pyridin-3(2H)-one], for which the IC50 turned out to be 0.95 nM.
With `O=C([C@@H]1CCCc2nn(CCc3ncc(C(F)(F)F)cc3Cl)c(=O)n21)N1CC(F)C1` [Example 518, (5S)-2-{[3-Chloro-5-(trifluoromethyl)pyridin-2-yl]ethyl}-5-[(3-fluoroazetidin-1-yl)carbonyl]-5,6,7,8-tetrahydro[1,2,4]triazolo[4,3-a]pyridin-3(2H)-one], the IC50 worked out at 15 nM.
In the case of `O=C([C@@H]1CCCc2nn(CCc3ccc(F)cc3)c(=O)n21)N1CCC(F)(F)C1` [Example 519, (5S)-5-[(3,3-Difluoropyrrolidin-1-yl)carbonyl]-2-[2-(4-fluorophenyl)ethyl]-5,6,7,8-tetrahydro[1,2,4]triazolo[4,3-a]pyridin-3(2H)-one], the IC50 amounted to 1.4 nM.
As for `O=C([C@@H]1CCCc2nn(CCc3ccc(F)cc3)c(=O)n21)N1CC(F)C1` [Example 520, (5S)-5-[(3-Fluoroazetidin-1-yl)carbonyl]-2-[2-(4-fluorophenyl)ethyl]-5,6,7,8-tetrahydro[1,2,4]triazolo[4,3-a]pyridin-3(2H)-one], the 50% inhibitory concentration (IC50) was 1.7 nM.
The same measure for `Cc1ccc(CCn2nc3n(c2=O)[C@H](C(=O)N2CCCC2)CCC3)cc1` [Example 521, (5S)-2-[2-(4-Methylphenyl)ethyl]-5-(pyrrolidin-1-ylcarbonyl)-5,6,7,8-tetrahydro[1,2,4]triazolo[4,3-a]pyridin-3(2H)-one]: 0.44 nM; for `COc1ccc(CCn2nc3n(c2=O)[C@H](C(=O)N2C[C@@H](F)[C@@H](F)C2)CCC3)cc1` [Example 522, (5S)-5-{[(3R,4S)-3,4-Difluoropyrrolidin-1-yl]carbonyl}-2-[2-(4-methoxyphenyl)ethyl]-5,6,7,8-tetrahydro[1,2,4]triazolo[4,3-a]pyridin-3(2H)-one]: 1.5 nM.
For the compound `COc1ccc(CCn2nc3n(c2=O)[C@H](C(=O)N2CC(F)(F)C2)CCC3)cc1` [Example 523, (5S)-5-[(3,3-Difluoroazetidin-1-yl)carbonyl]-2-[2-(4-methoxyphenyl)ethyl]-5,6,7,8-tetrahydro[1,2,4]triazolo[4,3-a]pyridin-3(2H)-one], the IC50 was 28.5 nM.
Take `Cc1ccc(C2(Cn3nc4n(c3=O)[C@H](C(=O)N3CCC(F)(F)C3)CCC4)CC2)cc1` [Example 524, (5S)-5-[(3,3-Difluoropyrrolidin-1-yl)carbonyl]-2-{[1-(4-methylphenyl)cyclopropyl]methyl}-5,6,7,8-tetrahydro[1,2,4]triazolo[4,3-a]pyridin-3(2H)-one]: the 50% inhibitory concentration (IC50) worked out at 2.9 nM.

The term IC50 denotes the concentration that inhibits the measured activity by half.

These data come from patent US10722501B2 (BAYER AKTIENGESELLSCHAFT, priority 2016, dated 2020).
